Laboratory results reported in patent US20230364057A1, “BACTERIAL DNA GYRASE INHIBITORS AND METHODS OF USE THEREOF” (THE FLORIDA INTERNATIONAL UNIVERSITY BOARD OF TRUSTEES, priority 2022, published 2023).
In brackets after ≈: the same amount, converted by molar mass. Like-named read-outs stand apart in the source and are kept apart here.

Key:
in vitro [1] = conditions: human
in vitro [2] = conditions: mouse
E. coli DNA gyrase [3] = biological target: T1, E. coli DNA gyrase (Escherichia coli (strain K12), UniProt P0AES4+P0AES6); assay: Agarose gel-based DNA gyrase inhibition assay; format: biochemical
Protocol: 100 ng of DNA gyrase was used to supercoil the rx pAB1 in the presence of different concentrations of a gyrase inhibitor. […] Samples were analyzed by electrophoresis in 1% w/v agarose gels followed by ethidium bromide staining and photographed under UV light.

E. coli DNA gyrase [4] = biological target: T1, E. coli DNA gyrase; assay: biochemical; format: biochemical
S. aureus (ATCC 14775) = assay: Minimum inhibitory concentration, broth microdilution; conditions: for MIC: Staphylococcus aureus
Mtb = Mtb whole cell assay (% inhibition, MIC); format: cell-based, Mycobacterium tuberculosis; conditions: Mycobacterium tuberculosis; for inhibition at 20 µM: Table 5 (same values in Table 6 at 20 µM)
MRSA = assay: Minimum inhibitory concentration, broth microdilution; conditions: for MIC: Staphylococcus aureus, MRSA
Protocol: Antibacterial minimum inhibitory concentrations (MICs) were obtained from three independent experiments using broth microdilution methods in 96-well plates according to Clinical and Laboratory Standards Institute guidelines. Cells were culture from singles colonies in MHIIB medium for 24 h at 37° C. in agitation (200 RPM). The cultures were then diluted using the same media to reach an OD600 of 0.1. Then, 50 µL of the diluted cultures were added to the plates holding 50 µL of serially diluted compounds in MHIIB. The plates were incubated at 37° C. for 20 h. The starting inoculum was fixated to 10^5 colony-forming units per ml.

Mtb DNA gyrase = Mtb DNA gyrase (Mycobacterium tuberculosis (strain ATCC 25618 / H37Rv), UniProt P9WG45+P9WG47); assay: Mtb DNA gyrase inhibition assay (gel-based); format: biochemical
Protocol: The IC50 against E. coli (A) and Mtb (C) gyrase were determined using the gel-based gyrase inhibition assays. The gyrase mediated DNA cleavage assays (B and D) were performed using pBR322. (A) 229 inhibits E. coli gyrase. Lane 1, rx pAB1. […] Lane 1, rx pAB1. […] 100 µM of CPDs were used. Symbols rx, nk, In, and sc represent relaxed, nicked, linear, and supercoiled DNA, respectively.
Agarose gel-based DNA gyrase inhibition assays were performed in 30 µL of 1 ×gyrase buffer (35 mM Tris-HCl, 24 mM KCl, 4 mM MgCl2, 2 mM DTT, 1.75 mM ATP, 0.1 mg/mL BSA, 6.5% glycerol, pH7.5) containing 400 ng of rx pAB1 at 37° C. 100 ng of DNA gyrase was used to supercoil the rx pAB1 in the presence of different concentrations of a gyrase inhibitor. After 15 minutes of incubation with the inhibitor at 37° C., all reactions were stopped with 1 µL of stop solution (3% SDS and 250 mM EDTA). Samples were analyzed by electrophoresis in 1% w/v agarose gels followed by ethidium bromide staining and photographed under UV light.

E. coli DNA gyrase [5] = biological target: T1, E. coli DNA gyrase; assay: E. coli DNA gyrase ATPase assay; format: biochemical
Protocol: E. coli DNA gyrase ATPase assays were performed in 60 µL of 1 ×gyrase ATPase buffer (10 mM Tris.HCl (pH 7.5), 0.2 mM EDTA, 1 mM magnesium chloride, 1 mM DTT, and 2% (w/v) glycerol) containing 50 nM E. coli DNA gyrase, 200 ng rx pAB1, 0.8 mM Phosphoenol pyruvate, 1.2 units of Pyruvate kinase, 1.7 units of lactate dehydrogenase, and 0.4 mM of NADH at 37° C. After the reaction mixtures are incubated on ice for 5 minutes, 2 mM of ATP is added to initiate the reaction. Absorbance at OD340nm is monitored for up to 30 minutes at 37° C. in a spectrophotometer.

E. coli (ATCC 25922) = assay: Minimum inhibitory concentration, broth microdilution; conditions: Escherichia coli, ATCC25922, read-out: Minimum Inhibitory Concentration E. coli, Tables 3a-3c
B. subtilis (ATCC 6633) = assay: as above; conditions: Bacillus subtilis, ATCC6633, read-out: Minimum Inhibitory Concentration B.subtilis
E. coli DNA gyrase [6] = biological target: T1, E. coli DNA gyrase; assay: DNA gyrase mediated DNA cleavage assay; format: biochemical; conditions: pBR322
Protocol: 250 ng of supercoiled pBR322 plasmid were incubated with 50 nM of E. coli DNA gyrase in reactions containing 35 mM Tris-HCl, 24 mM KCl, 4 mM MgCl2, 2 mM DTT, 0.1 mg/mL BSA, 6.5% glycerol, and 1.75 mM ATP, in presence of 200 µM of compounds, at 37° C. for 15 min. Then, 0.2% (w/v) of SDS and 0.1 mg/mL proteinase K were added, and samples were incubated at 37° C. for 1 h. […] Samples were examined by electrophoresis in 1% w/v agarose gel containing 0.5 µg/mL ethidium bromide and photographed under UV light.

M. abscessus = assay: MIC against M. abscessus; format: cell-based, Mycobacterium abscessus; conditions: Mycobacteroides abscessus
[7] = biological target: E. coli DNA topoisomerase IV (Escherichia coli (strain K12), UniProt P0AFI2+P20083); assay: E. coli DNA topoisomerase IV relaxation assay (gel-based); format: biochemical; conditions: IC50 Topoisomerase IV Gel-based, Table 8
E. coli DNA topoisomerase IV, sequence (P0AFI2 whole entry, looked up): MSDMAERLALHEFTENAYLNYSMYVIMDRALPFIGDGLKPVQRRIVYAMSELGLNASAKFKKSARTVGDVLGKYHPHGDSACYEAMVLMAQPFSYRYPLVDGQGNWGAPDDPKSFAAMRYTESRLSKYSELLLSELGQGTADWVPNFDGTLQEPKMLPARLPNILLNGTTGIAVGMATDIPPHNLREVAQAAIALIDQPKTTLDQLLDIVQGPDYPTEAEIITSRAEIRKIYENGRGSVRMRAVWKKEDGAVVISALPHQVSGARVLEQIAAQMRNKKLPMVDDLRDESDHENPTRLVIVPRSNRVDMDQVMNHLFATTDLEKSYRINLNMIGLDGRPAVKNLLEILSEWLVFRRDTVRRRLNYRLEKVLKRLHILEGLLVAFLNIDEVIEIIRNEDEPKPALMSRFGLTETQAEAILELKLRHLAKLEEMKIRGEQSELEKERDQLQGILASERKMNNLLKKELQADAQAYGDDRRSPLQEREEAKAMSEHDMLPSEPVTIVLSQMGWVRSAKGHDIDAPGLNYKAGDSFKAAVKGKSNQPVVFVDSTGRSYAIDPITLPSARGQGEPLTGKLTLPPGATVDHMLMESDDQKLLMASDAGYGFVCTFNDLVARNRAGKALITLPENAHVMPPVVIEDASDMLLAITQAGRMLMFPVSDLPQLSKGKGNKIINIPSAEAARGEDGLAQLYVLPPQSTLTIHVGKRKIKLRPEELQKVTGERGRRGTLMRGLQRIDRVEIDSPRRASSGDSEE
E. coli DNA topoisomerase IV, sequence (P20083 whole entry, looked up): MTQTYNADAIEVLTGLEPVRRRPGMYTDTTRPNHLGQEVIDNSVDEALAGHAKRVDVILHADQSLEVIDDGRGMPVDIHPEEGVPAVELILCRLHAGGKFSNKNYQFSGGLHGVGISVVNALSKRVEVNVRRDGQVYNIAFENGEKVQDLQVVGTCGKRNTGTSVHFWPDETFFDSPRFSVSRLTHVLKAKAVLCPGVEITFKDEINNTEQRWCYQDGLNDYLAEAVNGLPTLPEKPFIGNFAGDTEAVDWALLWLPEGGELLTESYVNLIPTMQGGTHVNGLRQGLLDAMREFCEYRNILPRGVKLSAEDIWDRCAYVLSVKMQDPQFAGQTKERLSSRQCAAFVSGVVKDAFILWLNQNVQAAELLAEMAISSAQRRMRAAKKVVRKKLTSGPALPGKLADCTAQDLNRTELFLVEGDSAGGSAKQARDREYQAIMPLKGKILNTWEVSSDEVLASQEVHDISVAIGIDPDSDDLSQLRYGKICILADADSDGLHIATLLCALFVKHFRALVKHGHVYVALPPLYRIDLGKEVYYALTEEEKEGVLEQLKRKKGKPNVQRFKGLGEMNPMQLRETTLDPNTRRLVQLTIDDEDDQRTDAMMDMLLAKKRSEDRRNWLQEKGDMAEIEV
Protocol: Relaxation assays by E. coli DNA topoisomerase IV and the ATPase assays were performed. […] Lane 1 is supercoiled plasmid pAB1. […] The supercoiled, fluorescently-labeled plasmid pAB1_FL905 was used.

[8] = ATCC14775, read-out: MIC (µM) SA
[9] = ATCC14775, read-out: Minimum Inhibitory Concentration S.aureus
[10] = read-out: Minimum Inhibitory Concentration S.aureus MRSA
[11] = Table 5, Mtb gyrase, read-out: IC50 (µM) Mtb
[12] = IC50 (50-200 µM), bin of Table 2
[13] = IC50 (µM) EC, Table 5, E. coli gyrase
[14] = IC50 (15-[…] µM), bin of Table 2

Compound	IC50 (in vitro [1])	IC50 (in vitro [2])	inhibition of E. coli DNA gyrase activities (E. coli DNA gyrase [3]; 50 µM of compounds)	inhibition of E. coli DNA gyrase activities (E. coli DNA gyrase [3]; 200 µM of compounds)	MIC (S. aureus (ATCC 14775); [9])	MIC (MRSA; [10])	also measured
CSc1nc(SCC(=O)O)c2sc3nc(-c4ccccc4)c4c(c3c2n1)CCC4 [Compound 19]	> 200 µM	> 200 µM	completely inhibited	completely inhibited	–	–	–
CC(=O)Nc1ccc(S(=O)(=O)Nc2nc3ccccc3nc2Nc2ccc(C(=O)O)c(O)c2)cc1 [Compound 30]	> 200 µM	> 200 µM	–	–	–	–	–
O=C(O)c1cccc(-c2ccc(/C=c3/sc4nc5ccccc5n4c3=O)o2)c1 [Compound 47]	> 200 µM	> 200 µM	completely inhibited	completely inhibited	–	–	–
Cc1c(CCC(=O)O)c(=O)oc2c(C)c3occ(-c4ccc(Br)cc4)c3cc12 [Compound 48]	–	–	completely inhibited	completely inhibited	3.12 µM (≈ 1.38 µg/mL)	3.12 µM (≈ 1.38 µg/mL)	inhibition of E. coli DNA gyrase activities (E. coli DNA gyrase [4]): potent bacterial DNA gyrase inhibitors; IC50 (E. coli DNA gyrase [4]; Table 5, E. coli gyrase, read-out: IC50 (µM) EC): 4.2 µM; MIC (S. aureus (ATCC 14775); [8]): 3.1 µM (≈ 1.37 µg/mL); inhibition at 20 µM (Mtb): 38.6%; MIC (MRSA; read-out: MIC (µM) MRSA): 3.1 µM (≈ 1.37 µg/mL); IC50 (Mtb DNA gyrase; [11]): 57 µM; Ki (E. coli DNA gyrase [5]): 0.15 µM; inhibition of the ATPase activities of E. coli DNA gyrase (E. coli DNA gyrase [5]; AB-MECA and gallates at 100 µM): ATP competitive inhibitor
CC(=O)Nc1ccc(/C=C2\Sc3ccccc3C2=O)cc1 [Compound 54]	> 200 µM	> 200 µM	–	almost completely inhibited	–	–	IC50 (E. coli DNA gyrase [4]; [12]): 50 to 200 µM
Cc1cc(/C=C2\SC(=S)NC2=O)c(C)n1C [Compound 64]	> 200 µM	> 200 µM	–	completely inhibited	–	–	IC50 (E. coli DNA gyrase [4]; [12]): 50 to 200 µM
COc1cc2ccccc2cc1C(=O)NC(=S)Nc1ccc(C(=O)O)cc1 [Compound 72]	–	–	–	–	–	–	MIC (E. coli (ATCC 25922)): 100 µM (≈ 38 µg/mL)
O=C(Nc1cccc(C2=NCCN2)c1)Nc1cccc(C2=NCCN2)c1 [Compound 79]	–	–	–	–	200 µM (≈ 69.7 µg/mL)	200 µM (≈ 69.7 µg/mL)	IC50 (E. coli DNA gyrase [4]; [12]): 50 to 200 µM; MIC (B. subtilis (ATCC 6633)): 100 µM (≈ 34.8 µg/mL); MIC (E. coli (ATCC 25922)): 200 µM (≈ 69.7 µg/mL)
O=C(O)c1ccc(NN=CC=Cc2ccc([N+](=O)[O-])o2)cc1 [Compound 110]	> 200 µM	> 200 µM	potently inhibited	–	–	–	IC50 (E. coli DNA gyrase [4]; [12]): 50 to 200 µM
Cc1c(CCC(=O)O)c(=O)oc2c(C)c3occ(-c4ccccc4)c3cc12 [Compound 121]	–	–	–	–	3.12 µM (≈ 1.13 µg/mL)	3.12 µM (≈ 1.13 µg/mL)	IC50 (E. coli DNA gyrase [4]; [13]): 28 µM; MIC (B. subtilis (ATCC 6633)): 50 µM (≈ 18.1 µg/mL); MIC (S. aureus (ATCC 14775); [8]): 3.1 µM (≈ 1.12 µg/mL); inhibition at 20 µM (Mtb): 36.7%; MIC (MRSA; read-out: MIC (µM) MRSA): 3.1 µM (≈ 1.12 µg/mL); IC50 (Mtb DNA gyrase; [11]): 58 µM
Cc1coc2cc3oc(=O)c(CCC(=O)O)c(C)c3cc12 [Compound 122]	–	–	potently inhibited	–	–	–	IC50 (E. coli DNA gyrase [4]; [13]): > 200 µM; MIC (S. aureus (ATCC 14775); [8]): > 200 µM; inhibition at 20 µM (Mtb): 15.7%; MIC (MRSA; read-out: MIC (µM) MRSA): > 200 µM; IC50 (Mtb DNA gyrase; [11]): > 200 µM
Cc1c(CCC(=O)O)c(=O)oc2c(C)c3occ(-c4ccc(F)cc4)c3cc12 [Compound 123]	–	–	completely inhibited	–	1.56 µM (≈ 0.593 µg/mL)	1.56 µM (≈ 0.593 µg/mL)	IC50 (E. coli DNA gyrase [4]; [13]): 28.1 µM; MIC (B. subtilis (ATCC 6633)): 6.25 µM (≈ 2.38 µg/mL); MIC (S. aureus (ATCC 14775); [8]): 1.6 µM (≈ 0.609 µg/mL); inhibition at 20 µM (Mtb): 31.8%; MIC (MRSA; read-out: MIC (µM) MRSA): 1.6 µM (≈ 0.609 µg/mL); IC50 (Mtb DNA gyrase; [11]): 34 µM
Cc1c(CCC(=O)O)c(=O)oc2c(C)c3occ(-c4ccc(N5CCCC5)cc4)c3cc12 [Compound 125]	–	–	completely inhibited	–	–	–	inhibition of E. coli DNA gyrase activities (E. coli DNA gyrase [4]): potently inhibited; IC50 (E. coli DNA gyrase [4]; [13]): 4.9 µM; growth of S. aureus (S. aureus (ATCC 14775)): did not inhibit the growth; MIC (S. aureus (ATCC 14775); [8]): > 200 µM; inhibition at 20 µM (Mtb): 10.2%; growth of MRSA (MRSA): did not inhibit the growth; IC50 (Mtb DNA gyrase; [11]): 55 µM
O=C(O)c1ccc(/N=N/C2C(O)=Nc3ccc(F)cc32)cc1 (centres unmarked) [Compound 127]	> 200 µM	> 200 µM	completely inhibited	–	50 µM (≈ 15 µg/mL)	50 µM (≈ 15 µg/mL)	MIC (B. subtilis (ATCC 6633)): 25 µM (≈ 7.48 µg/mL)
Cc1cccc2c1N=C(O)C2/N=N/c1ccc(C(=O)O)cc1 (centres unmarked) [Compound 128]	> 200 µM	> 200 µM	completely inhibited	–	50 µM (≈ 14.8 µg/mL)	50 µM (≈ 14.8 µg/mL)	MIC (B. subtilis (ATCC 6633)): 25 µM (≈ 7.38 µg/mL)
CCn1c(N)[n+](CC(=O)Nc2ccc(SC(F)F)cc2)c2ccccc21.[Cl-] [Compound 135]	–	–	completely inhibited	–	50 µM	50 µM	IC50 (E. coli DNA gyrase [4]; [14]): 15 to 25 µM; MIC (B. subtilis (ATCC 6633)): 50 µM; MIC (E. coli (ATCC 25922)): 200 µM
O=C(O)CCNc1ccc(NCCC(=O)O)c2c1C(=O)c1ccccc1C2=O [Compound 173, 3-({4-[(2-carboxyethyl)amino]-9,10-dioxo-9,10-dihydroanthracen-1-yl}amino)propanoic acid]	–	–	completely inhibited	–	–	100 µM (≈ 38.2 µg/mL)	IC50 (E. coli DNA gyrase [4]; [14]): 15 to 25 µM; E. coli DNA gyrase-mediated DNA breaks and nicking (E. coli DNA gyrase [6]): cause DNA nicking
COc1cc(/C=N/N=c2\[nH]c3ccccc3s2)cc([N+](=O)[O-])c1O [Compound 178]	> 200 µM	> 200 µM	completely inhibited	–	–	–	–
CCN(CC)c1ccc(C=C2SC(=S)NC2=O)cc1 [Compound 212]	> 200 µM	> 200 µM	completely inhibited	completely inhibited	–	–	IC50 (E. coli DNA gyrase [4]; IC50 ([…]-50 µM), bin of Table 2): 25 to 50 µM
O=C1C=C(NCCc2cc(Br)c(O)c(Br)c2)C(=O)c2ncccc21 [Compound 232, 7-((2-(3,5-Dibromo-4-hydroxyphenyl)ethyl)amino)-5,8-quinolinedione]	–	–	inhibited	completely inhibited	–	–	IC50 (E. coli DNA gyrase [4]; [12]): 50 to 200 µM; E. coli DNA gyrase-mediated DNA breaks and nicking (E. coli DNA gyrase [6]): cause DNA nicking
C[n+]1c(-c2ccc(/C=N/NC(=O)c3ccc(C(=O)N/N=C/c4ccc(-c5cn6ccccc6[n+]5C)cc4)nc3)cc2)cn2ccccc21 [Compound 264]	> 200 µM	–	–	–	–	–	MIC (S. aureus (ATCC 14775); ATCC14775, read-out: MIC (µM) Sa): 100 µM; MIC (Mtb): 6.2 µM; MIC (M. abscessus): 13.5 µM; IC50 (Mtb DNA gyrase; Table 10, read-out: IC50 (µM) Mtb gyrase): 2.1 µM
O=C(O)c1cc(O)c(O)c(O)c1 [gallic acid]	–	–	–	–	–	–	inhibition of E. coli DNA gyrase activities (E. coli DNA gyrase [4]): does not inhibit E. coli DNA gyrase up to 500 µM; IC50 [7]: > 500 µM; IC50 (E. coli DNA gyrase [3]; Table 8, read-out: IC50 Gyrase Gel-based): > 500 µM
